Source: patent publication US9988343B2, “Inhibitors of histone deacetylase” (Dana-Farber Cancer Institute, Inc., priority 2013, dated 2018)

Legend:
[1] = test system: HDAC3 knockdown cells; assay: MTT cell growth in HDAC3 knockdown cells; type: cell-based, human
Protocol: HDAC1, HDAC2 and HDAC3 pLKO.1 shRNA vectors were obtained from the RNA Interference Screening Facility at the Dana-Farber Cancer institute. Recombinant lentivirus was produced and infection of MM cells was performed using standard methods in the art.
In addition, the effect of bortezomib on HDAC3 knockdown cells was examined. RPMI8226 (FIG. 7B, left panel) and MM.1S (FIG. 7B, right panel) cells were infected with Luc or HDAC3 (#1 and #2) shRNAs. Cells were then cultured with or without bortezomib (3 nM) for 48 hours and cell growth was assessed by MTT assay. Data represent mean±SD from triplicate cultures.
Also, experiments were conducted to determine whether dual inhibition of both HDAC3 and HDAC6 was more cytotoxic than either HDAC3 or HDAC6 when combined with bortezomib. Cell growth was assayed by MTT assay in the presence of Luc (control), sh1 or sh2 shRNAs against HDAC3 alone, or in combination with a selective HDAC6 inhibitor—tubastatin-A, or in combination with both tubastatin-A and bortezomib.

[2] = test system: MM cell lines; assay: Cell growth inhibition assay (MTT) in MM cell lines; type: cell-based, human; settings: MM cell lines, 48 hours, MTT (FIG. 1A)
Protocol: To measure proliferation of MM cells, the rate of DNA synthesis was measured by ^3[H]-thymidine (Perkin-Elmer) uptake.
The growth inhibitory effect of Merck60 (HDACL, 2 inhibitor previously reported as compound #60 by Method et al. Bioorg. Med. Chem. Lett. 2008. 18(3):973-8) versus MS275 (HDAC1, 2, 3 inhibitor) was examined in MM cell lines using MTT assay. MM cells were cultured with Merck60 (left panel) or MS275 (right panel) for 48 hours. Cell growth was assessed by MTT assay. All experiments were performed 3 times in quadruplicate. Data represent mean±SD.
Cell growth was assessed by MTT assay. All experiments were performed 3 times in quadruplicate. Data represent mean±SD.

[3] = test system: RPMI8226 cells; assay: Combination with bortezomib, MTT cytotoxicity, combination index; type: cell-based, human; settings: for CI (combination index): RPMI8226, MTT, 24 h
Protocol: The combined effect of drugs was analyzed by isobologram analysis using the Compusyn software program (ComboSyn, Inc.); a combination index (CI)<1 is indicative of a synergistic effect.
All experiments were performed 3 times in quadruplicate. Data represent mean±SD (FIG. 7D).

[4] = test system: RPMI8226 cells; assay: Immunoblot of histone acetylation in RPMI8226 cells; type: cell-based, human; settings: RPMI8226, 12 h, compared with Merck60 (FIG. 1C)
[5] = test system: pSTAT3 (Tyr705); assay: Immunoblot of STAT3 phosphorylation in MM cells; type: cell-based, human; settings: RPMI8226 infected with shRNAs, bortezomib 5 nM, 6 hours (FIG. 7C)
Protocol: MM cells were harvested and lysed using sodium dodecyl sulfate-polyacrylamide gel electrophoresis (SDS-PAGE) sample buffer containing 60 mM Tris-HCl, pH 6.8, 2% SDS, 10% glycerol, 0.005% bromophenol blue, 5 mM ethylenediaminetetraacetic acid, 5 mM NaF, 2 mM […], 1 mM phenylmethylsulfonyl fluoride (PMSF), 5 μg/mL leupeptin, and 5 μg/mL aprotinin; and then heated at 100° C. for 5 min. After the determination of protein concentration using DC protein assay (Bio-Rad, Hercules, Calif.), β-mercaptoethanol (β-ME) was added to the whole-cell lysates to a 2% final β-ME concentration. The whole-cell lysates were subjected to SDS-PAGE, transferred to nitrocellulose membranes (Bio-Rad, Hercules, Calif.) or polyvinylidene fluoride membranes (Millipore, Billerica, Mass.), and immunoblotted with anti-histone H3, -HDAC1, -HDAC2, -HDAC3, -Acetyl-histone H2A (Lysine 5) (Ac-H2AK5), -Acetyl-histone H2B (lysine 5) (Ac-H2 BK5), -Acetyl-histone H3 (lysine 9) (Ac-H3K9), -Acetyl-histone H4 (lysine 8) (Ac-H4K8), -glyceraldehyde-3-phosphate dehydrogenase (GAPDH), -poly (ADP-ribose) polymerase (PARP), -caspase-3, -caspase-8, -caspase-9, -Signal transducers and activators of transcription 3 (STAT3), -phospho-STAT3 (pSTAT3) (tyrosine 705), -pSTAT3 (serine 727), -p21, -Janus kinase 2 (JAK2), -acetylated-Lysine (Ac-K), and anti-phosphorylated-tyrosine antibodies (Abs; Cell Signaling Technology, Beverly, Mass.).
MM.1S, U266, and INA6 cells were cultured with DMSO control or LBH589 (50 and 100 nM) for 8 h.
MM.1S cells pretreated with or without 50 nM LBH589 for 8 hours were then treated with IL-6 (10 ng/mL) or BMSC culture supernatants (#1 and #2) for 15 minutes. Whole cell lysates were subjected to immunoblotting with anti-pSTAT3 (Tyr705) and STAT3 Abs.
In addition, INA-6 cells were cultured with DMSO control, LBH589 (50 nM), TSA (1 μM) or SAHA (2 μM) for 8 hours. Whole cell lysates were subjected to immunoblotting with anti-pSTAT3 (Tyr705), STAT3, and GAPDH Abs.
Whole cell lysates were subjected to immunoblotting with anti-pSTAT3 (Tyr705), -STAT3, -pERK1/2 (Thr202/204), and -ERK1/2 Abs (FIG. 6G).
See, e.g., Hideshima et al. Blood. 2006, 107:4053-4062. Since bortezomib upregulates activated STAT3 in head and neck squamous cell carcinoma (see, e.g., Li et al. Mol Cancer Ther 2009. 8:2211-2220), experiments were conducted to test whether bortezomib enhances p-STAT3 in MM cells. RPMI8226 cells were infected with Luc, HDAC1 (sh1), HDAC2 (sh1) or HDAC3 (sh1) shRNAs and then treated with or without bortezomib (5 nM) for 6 hours. Whole cell lysates were subjected to immunoblotting with anti-STAT3, -pSTAT3 (Tyr705), -pERK1/2 (Thr202/204) and -ERK1/2 Abs.

[6] = target: PHF8 (Homo sapiens, UniProt Q9UPP1); settings: King et al. 2010; cited from earlier work
Chain of PHF8 (Q9UPP1 whole entry, species assumed): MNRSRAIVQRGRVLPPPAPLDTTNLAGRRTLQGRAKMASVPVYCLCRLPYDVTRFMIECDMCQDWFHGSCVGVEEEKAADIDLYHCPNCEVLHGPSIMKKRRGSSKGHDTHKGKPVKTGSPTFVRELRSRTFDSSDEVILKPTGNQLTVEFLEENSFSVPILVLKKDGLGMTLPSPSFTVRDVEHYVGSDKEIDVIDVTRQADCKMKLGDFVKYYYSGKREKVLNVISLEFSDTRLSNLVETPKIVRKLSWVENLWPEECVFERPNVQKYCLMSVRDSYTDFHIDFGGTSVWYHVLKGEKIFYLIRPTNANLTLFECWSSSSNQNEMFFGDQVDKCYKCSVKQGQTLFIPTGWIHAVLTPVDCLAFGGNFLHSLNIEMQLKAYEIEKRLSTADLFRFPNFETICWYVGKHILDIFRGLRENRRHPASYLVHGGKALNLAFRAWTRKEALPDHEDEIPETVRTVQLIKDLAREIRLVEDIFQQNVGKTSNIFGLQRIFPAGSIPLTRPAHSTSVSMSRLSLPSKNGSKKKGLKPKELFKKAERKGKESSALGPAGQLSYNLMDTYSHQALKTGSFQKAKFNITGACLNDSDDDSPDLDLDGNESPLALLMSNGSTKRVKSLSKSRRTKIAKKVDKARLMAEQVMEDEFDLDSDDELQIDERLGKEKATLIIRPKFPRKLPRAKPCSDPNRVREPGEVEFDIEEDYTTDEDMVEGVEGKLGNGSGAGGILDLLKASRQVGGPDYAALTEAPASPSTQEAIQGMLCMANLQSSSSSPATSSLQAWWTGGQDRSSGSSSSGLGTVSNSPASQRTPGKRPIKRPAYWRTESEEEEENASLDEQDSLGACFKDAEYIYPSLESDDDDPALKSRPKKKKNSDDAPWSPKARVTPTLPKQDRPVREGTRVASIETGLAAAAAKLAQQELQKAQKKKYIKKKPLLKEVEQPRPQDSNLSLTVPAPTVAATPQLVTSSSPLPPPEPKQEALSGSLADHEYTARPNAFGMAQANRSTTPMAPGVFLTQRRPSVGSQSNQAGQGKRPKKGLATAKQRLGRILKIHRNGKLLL

[7] = test system: JMJD2A in HeLa cells; settings: read-out: IC50 H3K9me3 demethylation by JMJD2A, King et al. 2010; cited from earlier work
[8] = test system: JMJ family demethylases, including several variants of JMJD2 and JMJD1; settings: Kruidenier et al. 2012; cited from earlier work

CN1CCc2c(c3ccccc3n2Cc2ccc(C(=O)NO)cc2)C1 [tubastatin-A]
cytotoxicity of combined HDAC3 knockdown with bortezomib ([1]; MTT, tubastatin-A added (FIG. 8B)): further enhanced cytotoxicity

Nc1ccccc1NC(=O)c1ccc(CNC(=O)OCc2cccnc2)cc1 [MS275]
MM cell growth inhibition [2]: significant MM cell growth inhibition | CI (combination index) ([3]; HDAC inhibitor 1 μM + bortezomib 4 nM): 0.81 | CI (combination index) ([3]; HDAC inhibitor 2 μM + bortezomib 2 nM): 0.56 | CI (combination index) ([3]; HDAC inhibitor 2 μM + bortezomib 3 nM): 0.63 | CI (combination index) ([3]; HDAC inhibitor 2 μM + bortezomib 4 nM): 0.76 | CI (combination index) ([3]; HDAC inhibitor 3 μM + bortezomib 2 nM): 0.53 | CI (combination index) ([3]; HDAC inhibitor 3 μM + bortezomib 3 nM): 0.62 | CI (combination index) ([3]; HDAC inhibitor 3 μM + bortezomib 4 nM): 0.77 | cytotoxicity in combination with bortezomib ([3]; RPMI8226, bortezomib 0-4 nM + 1-3 μM, 24 hours (FIG. 7A)): synergistic cytotoxicity | acetylation of histones (H2A, H2B, H3 and H4) [4]: more potently induced acetylation of histones

CC(C)CC(NC(=O)[C@H](Cc1ccccc1)NC(=O)c1cnccn1)B(O)O (stereo in doubt) [bortezomib, [(1R)-3-methyl-1-[[(2S)-1-oxo-3-phenyl-2-[(pyrazinylcarbonyl)amino]propyl]amino]butyl]boronic acid]
p-STAT3 [5]: upregulated p-STAT3 | cytotoxicity in HDAC3 knockdown cells ([1]; RPMI8226 and MM.1S with HDAC3 shRNAs, bortezomib 3 nM, 48 hours, MTT (FIG. 7B)): significantly enhances cytotoxicity

O=C(O)c1ccc(O)c2ncccc12 [IOX1, 8-hydroxy-5-quinolinecarboxylic acid]
IC50 [6]: 13.3 µM | IC50 [7]: 87 µM

O=C([O-])CCNc1cc(N2CCc3ccccc3CC2)nc(-c2ccccn2)n1.[Na+] [GSK J1, 3-((6-(4,5-dihydro-1H-benzo[d]azepin-3(2H)-yl)-2-(pyridin-2-yl)pyrimidin-4-yl)amino)propanoate, monosodium salt]
activity against a panel of additional JMJ family demethylases [8]: inactive
